Experimental data from US9409916B2, “Piperidinone carboxamide spirohydantoin CGRP receptor antagonists” (Merck Sharp & Dohme Corp., priority 2011, dated 2016).

Target: T1, recombinant human CL receptor/RAMP1 (Homo sapiens, UniProt O60894+Q16602)
T1 construct: expressed in transfected cells; membranes
Test: Recombinant receptor binding assay (125I-hCGRP)
Conditions: membranes of HEK 293 cells expressing human CL receptor/RAMP1, 10 pM 125I-hCGRP
Procedure: RECOMBINANT RECEPTOR: Human CL receptor (Genbank accession number L76380) was subcloned into the expression vector pIREShyg2 (BD Biosciences Clontech) as a 5′NheI and 3′ PmeI fragment. Human RAMP1 (Genbank accession number AJ001014) was subcloned into the expression vector pIRESpuro2 (BD Biosciences Clontech) as a 5′NheI and 3′NotI fragment. HEK 293 cells (human embryonic kidney cells; ATCC #CRL-1573) were cultured in DMEM with 4.5 g/L glucose, 1 mM sodium pyruvate and 2 mM glutamine supplemented with 10% fetal bovine serum (FBS), 100 units/mL penicillin and 100 μg/mL streptomycin, and maintained at 37° C. and 95% humidity. Cells were subcultured by treatment with 0.25% trypsin with 0.1% EDTA in HBSS. Stable cell line generation was accomplished by co-transfecting 10 μg of DNA with 30 μg Lipofectamine 2000 (Invitrogen) in 75 cm^2 flasks. CL receptor and RAMP1 expression constructs were co-transfected in equal amounts. Twenty-four hours after transfection the cells were diluted and selective medium (growth medium+300 μg/mL hygromycin and 1 μg/mL puromycin) was added the following day. A clonal cell line was generated by single cell deposition utilizing a FACS Vantage SE (Becton Dickinson). Growth medium was adjusted to 150 μg/mL hygromycin and 0.5 μg/mL puromycin for cell propagation.
RECOMBINANT RECEPTOR BINDING ASSAY: Cells expressing recombinant human CL receptor/RAMP1 were washed with PBS and harvested in harvest buffer containing 50 mM HEPES, 1 mM EDTA and Complete™ protease inhibitors (Roche). The cell suspension was disrupted with a laboratory homogenizer and centrifuged at 48,000 g to isolate membranes. The pellets were resuspended in harvest buffer plus 250 mM sucrose and stored at −70° C. For binding assays, 20 μg of membranes were incubated in 1 mL binding buffer (10 mM HEPES, pH 7.4, 5 mM MgCl2, and 0.2% BSA) for 3 h at room temperature containing 10 pM ^125I-hCGRP (GE Healthcare) and antagonist. The assay was terminated by filtration through 96-well GFB glass fiber filter plates (PerkinElmer) that had been blocked with 0.05% polyethyleneimine. […]

T1 sequence (Q16602 23-461): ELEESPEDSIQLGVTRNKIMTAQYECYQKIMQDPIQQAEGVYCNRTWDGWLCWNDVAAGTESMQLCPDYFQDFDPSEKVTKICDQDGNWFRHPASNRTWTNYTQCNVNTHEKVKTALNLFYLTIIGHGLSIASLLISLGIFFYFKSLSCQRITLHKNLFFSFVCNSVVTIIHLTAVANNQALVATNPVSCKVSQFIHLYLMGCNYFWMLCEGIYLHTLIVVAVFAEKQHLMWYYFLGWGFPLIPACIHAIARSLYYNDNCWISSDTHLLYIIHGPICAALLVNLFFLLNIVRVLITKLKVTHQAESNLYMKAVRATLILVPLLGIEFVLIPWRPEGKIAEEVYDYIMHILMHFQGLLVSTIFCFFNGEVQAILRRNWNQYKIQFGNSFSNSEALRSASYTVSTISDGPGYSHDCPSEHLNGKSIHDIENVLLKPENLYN
T1 sequence (O60894 27-148): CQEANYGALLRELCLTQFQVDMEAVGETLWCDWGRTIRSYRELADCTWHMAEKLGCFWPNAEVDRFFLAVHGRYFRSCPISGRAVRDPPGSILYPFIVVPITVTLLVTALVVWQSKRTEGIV

Ki [nM]	SMILES
0.061	C[C@@H]1[C@H](c2c(F)ccc(F)c2F)C[C@H](NC(=O)c2cnc3c(c2)C[C@@]2(C3)C(=O)NC(=O)N2C)C(=O)N1CC(F)(F)F [Example 1, (6R)-3′-Methyl-N-[(3S,5S,6R)-6-methyl-2-oxo-1-(2,2,2-trifluoroethyl)-5-(2,3,6-trifluorophenyl)piperidin-3-yl]-2′,5′-dioxo-5,7-dihydrospiro[cyclopenta[b]pyridine-6,4′-imidazolidine]-3-carboxamide]
0.059	C[C@@H]1[C@H](c2c(F)c(F)cc(F)c2F)C[C@H](NC(=O)c2cnc3c(c2)C[C@@]2(C3)C(=O)NC(=O)N2C)C(=O)N1CC(F)(F)F [Example 2, (6R)-3′-Methyl-N-[(3S,5S,6R)-6-methyl-2-oxo-1-(2,2,2-trifluoroethyl)-5-(2,3,5,6-tetrafluorophenyl)piperidin-3-yl]-2′,5′-dioxo-5,7-dihydrospiro[cyclopenta[b]pyridine-6,4′-imidazolidine]-3-carboxamide]
0.28	C[C@@H]1[C@H](c2cc(F)cc(F)c2F)C[C@H](NC(=O)c2cnc3c(c2)C[C@@]2(C3)C(=O)NC(=O)N2C)C(=O)N1CC(F)(F)F [Example 3]
